Measured values: patent publication US6867185B2 (Bristol-Myers Squibb Company, priority 2001, dated 2005)
Like-named read-outs stand apart in the source and are kept apart here.

Columns and labels:
[1] = rcm bond, 1,2-DCE
[2] = rcm bond, 1,2-dichloroethane
[3] = tested on: HCV replicon in Huh7 cells; assay: HCV replicon cell-based assay (replicon FRET assay); set-up: species or system HCV strain 1B; conditions: Hepatitis C virus, Huh-7, HCV replicon cell assay; EC50 ranges
In short: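 Huh7 cells carrying a genotype 1b subgenomic replicon (neo, NS3–NS5B) were treated with compound for 4 days at 37 °C in 0.5% DMSO final. Lysates with 10 μM RET S1 FRET peptide and 150 mM NaCl were read kinetically at 340/490 nm over 21 cycles. EC50 was derived as for the enzyme IC50.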

[4] = biological target: T1, HCV NS3/4A protease complex, BMS strain (genotype 1a) (Hepatitis C virus genotype 1a, UniProt P27958, C1454S/C1711G); assay: Recombinant HCV NS3/4A protease complex FRET peptide assay (BMS strain); type: biochemical; conditions: IC50, HCV NS3/4A protease FRET assay in vitro; IC50 ranges
T1 construct: recombinant HCV NS3/4A protease complex (amino'acids 1027 to 1711); inferred from the pET21b vector and Ni-NTA purification; made in house; host or cells: Escherichia coli BL21 (DE3), pET21b
In short: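 Enzyme was NS3/4A complex (aa 1027-1711) from genotype 1a BMS strain, carrying C1454S and C1711G mutations plus a three-lysine tail, expressed in E. coli and Ni-NTA/size-exclusion purified to >90% purity.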

[5] = from 1-{[1-(2(S)-tert-butoxycarbonylamino-oct-7-enoyl)-4-(7-methoxy-2-phenylquinolin-4(R)-yloxy)-pyrrolidine-2(S)-carbonyl]-1(R)-amino]-2(S)-vinyl-cyclopropanecarboxylic acid ethyl ester, 14-membered ring, Grubbs catalyst (275 + 225 mg)

T1 sequence (P27958 1027-1711 C1454S/C1711G, one chain of several): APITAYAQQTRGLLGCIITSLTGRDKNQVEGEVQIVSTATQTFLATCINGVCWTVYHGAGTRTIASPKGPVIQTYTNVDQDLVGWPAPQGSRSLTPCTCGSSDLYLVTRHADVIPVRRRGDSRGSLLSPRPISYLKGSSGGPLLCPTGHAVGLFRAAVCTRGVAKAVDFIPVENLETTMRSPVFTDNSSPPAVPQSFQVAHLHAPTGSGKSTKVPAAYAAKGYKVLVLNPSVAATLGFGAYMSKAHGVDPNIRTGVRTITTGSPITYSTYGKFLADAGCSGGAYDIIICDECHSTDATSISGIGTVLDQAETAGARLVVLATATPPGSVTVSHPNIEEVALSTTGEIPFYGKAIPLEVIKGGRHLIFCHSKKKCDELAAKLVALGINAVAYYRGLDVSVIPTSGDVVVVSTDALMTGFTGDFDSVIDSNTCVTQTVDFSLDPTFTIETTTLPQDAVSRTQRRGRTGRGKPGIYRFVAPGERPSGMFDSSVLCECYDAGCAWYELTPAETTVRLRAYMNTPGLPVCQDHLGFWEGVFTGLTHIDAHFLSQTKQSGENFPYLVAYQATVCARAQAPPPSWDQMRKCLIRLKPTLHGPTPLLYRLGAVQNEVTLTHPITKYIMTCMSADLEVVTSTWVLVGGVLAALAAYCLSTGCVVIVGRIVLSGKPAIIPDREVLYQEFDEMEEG

With `CCOC(=O)[C@@]12CC1/C=C/CCCC[C@H](C(=O)OC(C)(C)C)C(=O)N1C[C@H](Oc3cc(-c4ccccc4)nc4cc(OC)ccc34)C[C@@]1(N)C(=O)N2` (some centres unmarked) the ring closure, isolated yield [1, 5] was 8%.

In the case of `CCOC(=O)[C@@]12C[C@H]1/C=C/CC[C@H](NC(=O)OC(C)(C)C)C(=O)N1C[C@H](Oc3cc(-c4ccccc4)nc4cc(OC)ccc34)C[C@H]1C(=O)N2`, the ring closure, isolated yield ([1]; from 1-{[1-(2(S)-tert-butoxycarbonylamino-hex-5-enoyl)-4-(7-methoxy-2-phenyl-quinolin-4(R)-yloxy)-pyrroiidine-2(S)-carbonyl]-1(R)-amino}-2(S)-vinyl-cyclopropanecarboxylic acid ethyl ester, 12-membered ring, Grubbs catalyst (2 x 70 mg), 2.02 mM) is reported as 46%.

`CCOC(=O)[C@@]12C[C@H]1/C=C\CCCCC[C@H](NC(=O)OC(C)(C)C)C(=O)N1C[C@H](Oc3cc(-c4ccccc4)nc4cc(OC)ccc34)C[C@H]1C(=O)N2` gave a ring closure, isolated yield ([1]; from 1-{[1-(2(S)-tert-butoxycarbonylamino-non-8-enoyl)-4-(7-methoxy-2-phenylquinolin-4(R)-yloxy)-pyrrolidine-2(S)-carbonyl]-1(R)-amino]-2 (5)-vinylcyclopropanecarboxylic acid ethyl ester, 15-membered ring, Grubbs catalyst (3 x 150 mg), 0.83 mM) of 75%.

Work on `CCOC(=O)[C@@]12C[C@H]1/C=C\CCCC[C@H](NC(=O)OC(C)(C)C)C(=O)N1C[C@H](Oc3cc(-c4ccccc4)nc4cc(OC)ccc34)C[C@H]1C(=O)N2` yielded a ring closure, isolated yield [1, 5] of 20% and a ring closure, isolated yield ([1]; from 1-{[1-(2(S)-tert-butoxycarbonylamino-oct-7-enoyl)-4-(7-methoxy-2-phenylquinolin-4(R)-yloxy)pyrrolidine-2(S)-carbonyl]-1(R)-amino]-2(S)-vinylcyclopropanecarboxylic acid ethyl ester, 14-membered ring, Grubbs catalyst (150 + 140 + 140 mg), 0.77 mM) of 52%.

`CCOC(=O)[C@@]12C[C@H]1C=CCCCCC[C@H](NC(=O)OC(C)(C)C)C(=O)N1C[C@H](Oc3cc(-c4ccccc4)nc4cc(OC)ccc34)C[C@H]1C(=O)N2` showed a ring closure, yield of all isomers ([2]; from C=CCCCCC[C@H](NC(=O)OC(C)(C)C)C(=O)N1C[C@H](Oc2cc(-c3ccccc3)nc3cc(OC)ccc23)C[C@H]1C(=O)N[C@]1(C(=O)OCC)C[C@H]1C=C, Grubbs catalyst, 0.829 mM, 83.0 °C, 15.0 h) of 75%.

Compound `CCOC(=O)[C@@]12C[C@H]1C=CCCCC[C@H](NC(=O)OC(C)(C)C)C(=O)N1C[C@H](Oc3cc(-c4ccccc4)nc4cc(OC)ccc34)C[C@H]1C(=O)N2` has a ring closure, yield of all isomers ([2]; from C=CCCCC[C@H](NC(=O)OC(C)(C)C)C(=O)N1C[C@H](Oc2cc(-c3ccccc3)nc3cc(OC)ccc23)C[C@H]1C(=O)N[C@]1(C(=O)OCC)C[C@H]1C=C, Grubbs catalyst, 0.772 mM, 83.0 °C, 21.0 h) of 52% and a ring closure, yield of all isomers ([2]; from C=CCCCC[C@H](NC(=O)OC(C)(C)C)C(=O)N1C[C@H](Oc2cc(-c3ccccc3)nc3cc(OC)ccc23)C[C@H]1C(=O)N[C@]1(C(=O)OCC)C[C@H]1C=C, Grubbs catalyst, 2.02 mM, 83.0 °C, 15.0 h) of 28%.

Compound `CCOC(=O)[C@@]12C[C@H]1C=CCCCSC[C@@H](NC(=O)OC(C)(C)C)C(=O)N1C[C@H](Oc3cc(-c4ccccc4)nc4cc(OC)ccc34)C[C@H]1C(=O)N2` has a ring closure, yield of all isomers ([2]; from C=CCCCSC[C@@H](NC(=O)OC(C)(C)C)C(=O)N1C[C@H](Oc2cc(-c3ccccc3)nc3cc(OC)ccc23)C[C@H]1C(=O)N[C@]1(C(=O)OCC)C[C@H]1C=C, Grubbs II (tricyclohexylphosphine[1,3-bis(2,4,6-trimethylphenyl)-4,5-dihydroimidazol-2-ylidene][benzylidene]ruthenium(IV) dichloride), 3.48 mM, 45.0 °C, 21.0 h) of 42%.

Compound `CCOC(=O)[C@@]12C[C@H]1C=CCCC[C@H](NC(=O)OC(C)(C)C)C(=O)N1C[C@H](Oc3cc(-c4ccccc4)nc4cc(OC)ccc34)C[C@H]1C(=O)N2` has a ring closure, yield of all isomers ([2]; from C=CCCC[C@H](NC(=O)OC(C)(C)C)C(=O)N1C[C@H](Oc2cc(-c3ccccc3)nc3cc(OC)ccc23)C[C@H]1C(=O)N[C@]1(C(=O)OCC)C[C@H]1C=C, Grubbs catalyst, 2.02 mM, 83.0 °C, 15.0 h) of 49%.

With `CCOC(=O)[C@@]12C[C@H]1C=CCC[C@H](NC(=O)OC(C)(C)C)C(=O)N1C[C@H](Oc3cc(-c4ccccc4)nc4cc(OC)ccc34)C[C@H]1C(=O)N2` the ring closure, yield of all isomers ([2]; from C=CCC[C@H](NC(=O)OC(C)(C)C)C(=O)N1C[C@H](Oc2cc(-c3ccccc3)nc3cc(OC)ccc23)C[C@H]1C(=O)N[C@]1(C(=O)OCC)C[C@H]1C=C, Grubbs catalyst, 2.02 mM, 83.0 °C, 15.0 h) was 46%.

`COc1ccc2c(O[C@@H]3C[C@H]4C(=O)N[C@]5(C(=O)NS(=O)(=O)C6CC6)C[C@H]5C=CCCCCC[C@H](NC(=O)OC(C)(C)C)C(=O)N4C3)ccnc2c1` gave a ring closure, yield of all isomers ([2]; from C=CCCCCC[C@H](NC(=O)OC(C)(C)C)C(=O)N1C[C@H](Oc2ccnc3cc(OC)ccc23)C[C@H]1C(=O)N[C@]1(C(=O)NS(=O)(=O)C2CC2)C[C@H]1C=C, Grubbs catalyst, 1.02 mM, 83.0 °C, 10.0 h) of 1.9%.

With `COc1ccc2c(O[C@@H]3C[C@H]4C(=O)N[C@]5(C(=O)NS(=O)(=O)C6CC6)CC5/C=C\CCCS(=O)(=O)C[C@H](NC(=O)OC(C)(C)C)C(=O)N4C3)cc(-c3ccccc3)nc2c1` (stereo partly drawn) [Compound 32, (1S,4R,6S,14S,18R)-7-cis-[4-Cyclopropanesulfonylaminocarbonyl-18-(7-methoxy-2-phenyl-quinolin-4-yloxy)-2,12,12,15-tetraoxo-12,16-thia-3,16-diazatricyclo[14.3.0.0^4,6]nonadec-7-en-14-yl]carbamic acid tert-butyl ester] the EC50 [3] was < 50 nM and the IC50 [4] was < 50 nM.

In the case of `CC(C)(C)OC(=O)N[C@H]1CCCCC/C=C\[C@@H]2C[C@@]2(C(=O)NS(=O)(=O)C2CC2)NC(=O)[C@@H]2C[C@@H](Oc3ccnc4c(C(F)(F)F)cccc34)CN2C1=O` [Compound 33, (1S,4R,6S,14S,18R)-7-cis-[4-Cyclopropanesulfonylaminocarbonyl-2,15-dioxo-18-(8-trifluoromethylquinol-in-4-yloxy)-3,16-diazatricyclo[14.3.0.04,6]nonadec-7-en-14-yl]-carbamic acid tert-butyl ester], the EC50 [3] is reported as < 50 nM and the IC50 [4] is reported as < 50 nM.

Work on “(1S,4R,6S,12S,16R)-7-trans-12-tert-butoxycarbonylamino-16-(7-methoxy-2-phenylquinolin-4-yloxy)-2,13-dioxo-3,14-diazatricyclo[12.3.0.0^4,6]hepta-dec-7-ene-4-carboxylic acid ethyl ester” yielded a ring closure, isolated yield ([1]; 13-membered ring, Grubbs catalyst (2 x 75 mg)) of 49%.
